In data set [1] the target is IDO1 (Homo sapiens, UniProt P14902). Description: Determination of mode of enzyme inhibition (Lineweaver-Burk). It is filed as biochemical. Also noted: made in house; host or cells: Escherichia coli M15 (pQE30 vector with pREP4 plasmid). Particulars: for Ki: Km = 59.76 µM and Kcat = 6.18 sec-1; for Mode of IDO1 inhibition: with respect to L-Trp. As for the experimental part:
The mode of IDO1 enzyme inhibition was measured according to the reported spectrophotometric method. The assay was performed by varying both tryptophan concentration from 50 to 150 µM and inhibitor concentration from 32 nM to 4 µM. The amount of formation of N-formylkynurenine was recorded at different time intervals. The mode of enzyme inhibition was determined from the plot of 1/V against 1/[S], where V is the initial rate of the enzymatic reaction and [S] is the L-Trp concentration.

For data set [2], the target named is T1, purified human IDO1 enzyme (Homo sapiens, UniProt P14902).
T1 construct: made in house; host or cells: Escherichia coli M15 (pQE30 vector with pREP4 plasmid)
Nature of the data set: IDO1 inhibition assay by the spectrometric method (pDMAB). It is filed as biochemical. Particulars: for IC50: purified human IDO1, spectrophotometric, mean of three independent assays, read-out: hIDO1 IC50; for fold stronger IDO1 inhibition than MMG-0358: similar experimental conditions. Put shortly:
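Inhibitors serially diluted from 100 µM to 32 nM, DMSO 0.02–2%. Reaction quenched with 30% (w/v) TCA and held 15 min at 65 °C. Kynurenine formed was detected with 2% (w/v) pDMAB by absorbance at 480 nm.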

For data set [3], the target named is T2, IDO1 enzyme (ferric and deoxy-ferrous) (Homo sapiens, UniProt P14902).
T2 construct: made in house; host or cells: Escherichia coli M15 (pQE30 vector with pREP4 plasmid)
Nature of the data set: Binding analysis by UV-Vis spectroscopic measurement. Particulars: for Soret band red-shift: both ferric-IDO1 and deoxy-ferrous-IDO1; for Q-band shift: deoxy-ferrous-IDO1, Q-band at 551 nm for only enzyme. As to the method:
Figure 4 Binding properties of the potent compounds. Absorption spectra of ferric-IDO1 (A) and deoxy-ferrous-IDO1 enzyme (B) in the absence and presence of the compounds (20 μM) in 100 mM phosphate buffer at pH 6.5. [IDO1] = 0.65 μM. The ferrous-deoxy reaction environment was generated by adding Na2S2O4 to the solution under N2 atmosphere. The binding isotherms were generated from the response unit (RU) at 60 sec (average of triplicate measurements) versus the concentration of the compounds. A solid line represents a theoretical curve constructed from Rmax and Kd values determined by nonlinear least-squares analysis of the isotherms (C). 20 mm HEPES buffer, pH 7.4, with 0.16 m KCl was used for all SPR measurements. […] The model structures were generated using MoleGro Virtual Docker, version 6.0. The oxygen and nitrogen atoms are shown in red and blue, respectively. Residues involved in interactions through hydrogen bond formation are shown using dashed lines (yellow). Images were generated using PyMol.
The efficacy of the compound’s direct binding to the enzyme active site was measured by UV-Vis spectroscopic analysis[26]–[28],[30]. All the measurements were performed at room temperature using 100 mM KPB (pH 6.5), purified hIDO1 enzyme (3 µM), and selected compounds (20 µM. The deoxy-reaction system was generated by injecting Na2S2O4 (~10-fold excess) into the solution pre-purged with N2 gas.

Data set [4] concerns the target T3, purified human TDO enzyme (Homo sapiens, UniProt P48775).
T3 construct: 6xHis (N); made in house; host or cells: Escherichia coli BL21 (DE3) (pET 28a vector)
Description: TDO inhibition assay by the spectrometric method. The format is biochemical. Particulars: for inhibitory efficacies against TDO enzyme: both spectrophotometric and kynurenine assay. Put shortly:
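Purified enzyme (IDO1 40 nM in 100 mM KPB pH 6.5; TDO 25 nM in 50 mM KPB pH 8.0) was run with 150 µM L-Trp, ascorbate, methylene blue and catalase at 37 °C for 1 h. Inhibitors were tested from 100 µM to 32 nM. After TCA quench, kynurenine was read with pDMAB at 480 nm.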

Data set [5] is described as follows: Serum binding by Trp-fluorescence quenching. It is filed as in vitro ADME, human. Particulars: qualitative; compared with compound 4i. As for the experimental part: Tryptophan fluorescence measurements of the human serum were performed in the presence of compounds on a Fluoromax-4 spectrofluorometer at room temperature. For fluorescence measurements, 30 µL of 100% human serum and varying concentrations (0–220 µM) of compounds were incubated in 10 mM PBS buffer, pH 7.4. The solution was excited at 290 nm, and emission spectra were recorded from 300 to 560 nm. The resulting tryptophan emission spectra for each concentration of the compounds were plotted.

T2 sequence (P14902 whole entry): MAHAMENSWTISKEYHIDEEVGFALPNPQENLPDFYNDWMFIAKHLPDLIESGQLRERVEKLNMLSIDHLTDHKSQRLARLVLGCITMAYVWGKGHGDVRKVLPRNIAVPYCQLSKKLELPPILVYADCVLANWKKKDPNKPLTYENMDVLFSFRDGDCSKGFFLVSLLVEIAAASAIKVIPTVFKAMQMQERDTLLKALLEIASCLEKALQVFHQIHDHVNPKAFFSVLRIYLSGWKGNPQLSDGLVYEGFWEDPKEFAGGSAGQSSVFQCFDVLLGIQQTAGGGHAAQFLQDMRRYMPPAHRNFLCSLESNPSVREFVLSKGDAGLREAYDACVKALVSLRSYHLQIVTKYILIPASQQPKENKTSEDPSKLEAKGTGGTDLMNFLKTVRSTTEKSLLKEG
T1 sequence (P14902 whole entry): as above
IDO1, sequence (P14902 whole entry): as above
T3 sequence (P48775 whole entry): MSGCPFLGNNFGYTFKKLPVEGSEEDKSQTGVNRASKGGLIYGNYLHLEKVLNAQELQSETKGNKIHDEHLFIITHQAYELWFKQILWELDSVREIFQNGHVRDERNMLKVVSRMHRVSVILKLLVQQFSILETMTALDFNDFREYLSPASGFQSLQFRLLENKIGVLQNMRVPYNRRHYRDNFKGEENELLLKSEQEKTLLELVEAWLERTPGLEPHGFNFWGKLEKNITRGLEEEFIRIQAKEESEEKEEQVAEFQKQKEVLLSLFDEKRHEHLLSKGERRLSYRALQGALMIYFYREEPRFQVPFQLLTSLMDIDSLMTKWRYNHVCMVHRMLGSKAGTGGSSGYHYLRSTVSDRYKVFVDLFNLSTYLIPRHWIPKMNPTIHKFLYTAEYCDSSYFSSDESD

For `NC(=O)c1n[nH]nc1-c1ccc(F)c(F)c1` [Compound 3i], the affinity in data set [1], expressed as Ki, was 160 ± 15 nM. In data set [1], the “Mode of IDO1 inhibition” value is “competitive”. Further, the IC50 in data set [2] is 111 ± 5 nM. For the same molecule, the “fold stronger IDO1 inhibition than MMG-0358” value in data set [2] turned out to be 3 fold. Also, the Soret band red-shift in data set [3] is 5–8 nm. In data set [3], the Q-band shift is 10–13 nm. Also, the “inhibitory efficacies against TDO enzyme” value in data set [4] is given as “moderate to poor”. The “% of Enzyme inhibition (TDO)” value in data set [4] (spectrophotometric, 32 nM) came to 5%; in data set [4] (spectrophotometric, 160 nM), 11%; in data set [4] (spectrophotometric, 800 nM), 14%; in data set [4] (spectrophotometric, 4 µM), 26%; in data set [4] (spectrophotometric, 20 µM), 33%; in data set [4] (spectrophotometric, 100 µM), 49%. Moreover, in data set [5], the “interaction with human serum proteins (Trp-fluorescence quenching)” value (from here on “interaction with human serum proteins”) is recorded as “more strongly”.

In the case of `NS(=O)(=O)NCCNC(=O)c1n[nH]nc1-c1ccc(F)c(F)c1` [Compound 4k], in data set [1], the affinity corresponds to a Ki of 98 ± 11 nM and the “Mode of IDO1 inhibition” value is recorded as “competitive”. In data set [2] (4 μM compound), this molecule returned an inhibition at 4 µM of 71 to 86%. In addition, in data set [2] (100 μM compound), the inhibition at 100 µM lay within 82 to 93%. In data set [2], the half-maximal inhibitory concentration (IC50) worked out at 92 ± 12 nM and the “fold stronger IDO1 inhibition than MMG-0358” value is 3 fold. For the same molecule, in data set [3], the Soret band red-shift was 5–8 nm and the Q-band shift was 10–13 nm. Moreover, in data set [4], the “inhibitory efficacies against TDO enzyme” value is listed as “moderate to poor”. In addition, at 0.032 µM the inhibition in data set [4] (spectrophotometric, 32 nM) was 3%. The molecule further displayed an inhibition at 0.16 µM in data set [4] (spectrophotometric, 160 nM) of 6%. For the same molecule, 0.8 µM produced 16% inhibition in data set [4] (spectrophotometric, 800 nM). In addition, the inhibition at 4 µM in data set [4] (spectrophotometric, 4 µM) was 32%. In data set [4] (spectrophotometric, 20 µM), the inhibition at 20 µM worked out at 45%. In data set [4] (spectrophotometric, 100 µM), the inhibition at 100 µM was 50%. In data set [5], the “interaction with human serum proteins” value is on record as “more strongly”.

For the molecule `O=C(N/C(Cc1ccc(O)cc1)=N\O)c1n[nH]nc1-c1ccc(F)c(F)c1` [Compound 4i], affinity in data set [1] was put at a Ki of 258 ± 22 nM. Moreover, the “Mode of IDO1 inhibition” value in data set [1] is “competitive”. In addition, the half-maximal inhibitory concentration (IC50) in data set [2] was determined as 94 ± 4 nM. Besides, in data set [3], the Soret band red-shift was 5–8 nm. Further, the Q-band shift in data set [3] is recorded as 10–13 nm. The “inhibitory efficacies against TDO enzyme” value in data set [4] is on record as “moderate to poor”. Also, the “% of Enzyme inhibition (TDO)” value came to 4% in data set [4] (spectrophotometric, 32 nM); 7% in data set [4] (spectrophotometric, 160 nM); 14% in data set [4] (spectrophotometric, 800 nM); 24% in data set [4] (spectrophotometric, 4 µM); 42% in data set [4] (spectrophotometric, 20 µM); 55% in data set [4] (spectrophotometric, 100 µM).

As for `CCOC(=O)c1n[nH]nc1-c1ccc(F)c(F)c1` [Compound 2i], the affinity in data set [1], expressed as Ki, was 241 ± 38 nM. Moreover, in data set [1], the “Mode of IDO1 inhibition” value is given as “competitive”. Further, the 50% inhibitory concentration (IC50) in data set [2] is 545 ± 29 nM. In addition, the Soret band red-shift in data set [3] was 5–8 nm. Besides, the Q-band shift in data set [3] is listed as 10–13 nm. For the same molecule, in data set [4], the “inhibitory efficacies against TDO enzyme” value is “moderate to poor”. Moreover, the “% of Enzyme inhibition (TDO)” value was found to be 2% in data set [4] (spectrophotometric, 32 nM); 9% in data set [4] (spectrophotometric, 160 nM); 12% in data set [4] (spectrophotometric, 800 nM); 15% in data set [4] (spectrophotometric, 4 µM); 23% in data set [4] (spectrophotometric, 20 µM); 28% in data set [4] (spectrophotometric, 100 µM). The “interaction with human serum proteins” value in data set [5] is “more strongly”.

(Values after paper PMC6895048, “4,5-Disubstituted 1,2,3-triazoles: Effective Inhibition of Indoleamine 2,3-Dioxygenase 1 Enzyme Regulates T cell Activity and Mitigates Tumor Growth” (Scientific Reports, 2019).)
